These results are taken from patent publication US20220289698A1, “INHIBITORS OF HUMAN ATGL” (Karl-Franzens-Universität Graz, priority 2019, published 2022).

For orientation: IC50 means the point on the concentration scale where inhibition reaches its midpoint. The inhibition is the relative decrease from the control value, in per cent.

One series deals with T1, human ATGL (Homo sapiens, UniProt Q96AD5).
T1 construct: made in house; host or cells: Expi cells (lysate, not purified)
T1 sequence (Q96AD5 1-504): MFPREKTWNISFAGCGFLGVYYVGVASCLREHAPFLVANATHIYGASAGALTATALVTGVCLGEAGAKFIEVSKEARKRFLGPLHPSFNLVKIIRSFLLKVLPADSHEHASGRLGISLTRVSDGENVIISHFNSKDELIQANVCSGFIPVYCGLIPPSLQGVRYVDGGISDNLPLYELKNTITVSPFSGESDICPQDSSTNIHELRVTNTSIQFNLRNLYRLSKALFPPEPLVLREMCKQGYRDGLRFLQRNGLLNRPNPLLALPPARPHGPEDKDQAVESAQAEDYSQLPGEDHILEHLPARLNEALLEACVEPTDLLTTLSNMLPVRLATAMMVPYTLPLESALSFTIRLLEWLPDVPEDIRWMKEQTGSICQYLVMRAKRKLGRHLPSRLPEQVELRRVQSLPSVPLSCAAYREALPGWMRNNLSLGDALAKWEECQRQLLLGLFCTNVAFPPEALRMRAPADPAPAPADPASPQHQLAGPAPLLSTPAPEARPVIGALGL
The series is described as follows: TG hydrolase activity, Expi cell lysates expressing human ATGL + CGI-58, radiolabelled triolein. In kind it is biochemical. The gist of the method:
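Lysates of Expi cells expressing ATGL, supplemented with purified CGI-58 and inhibitor in DMSO, incubated 1 h at 37 °C with emulsified radiolabelled triolein (330 μM) in potassium phosphate pH 7.0 with 5% FA-free BSA. Released FA counted by liquid scintillation after phase extraction; IC50 versus DMSO control, duplicates.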

The target in another series is T2, murine ATGL (Mus musculus, UniProt Q8BJ56).
T2 construct: made in house; host or cells: Expi cells (lysate)
T2 sequence (Q8BJ56 1-486): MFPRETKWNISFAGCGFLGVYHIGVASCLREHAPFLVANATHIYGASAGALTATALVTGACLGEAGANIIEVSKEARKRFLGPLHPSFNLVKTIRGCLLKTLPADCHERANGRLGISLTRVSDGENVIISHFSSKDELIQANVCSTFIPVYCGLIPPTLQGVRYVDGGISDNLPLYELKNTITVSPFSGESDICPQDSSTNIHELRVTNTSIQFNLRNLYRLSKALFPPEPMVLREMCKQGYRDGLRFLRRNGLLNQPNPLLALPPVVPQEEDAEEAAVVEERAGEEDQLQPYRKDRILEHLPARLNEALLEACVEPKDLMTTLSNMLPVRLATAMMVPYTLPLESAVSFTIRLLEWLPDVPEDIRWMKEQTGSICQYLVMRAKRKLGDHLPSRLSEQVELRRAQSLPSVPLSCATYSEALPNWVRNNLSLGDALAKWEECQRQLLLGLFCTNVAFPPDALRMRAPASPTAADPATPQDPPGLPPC
Description: TG hydrolase activity, Expi lysates expressing mouse ATGL + CGI-58, radiolabelled triolein. In kind it is biochemical. The gist of the method:
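Lysates of Expi cells overexpressing mouse ATGL, with added recombinant CGI-58, were incubated with inhibitor at 50 μM. Substrate was emulsified radiolabelled triolein with PC/PI in 100 mM potassium phosphate pH 7.0 and 5% FA-free BSA, 1 h at 37° C. Released FA were extracted and counted by scintillation; triplicates, DMSO control.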

A further series has as its target T3, mMGL (Mus musculus, UniProt O35678).
T3 construct: made in house; host or cells: E. coli (lysate)
T3 sequence (O35678 1-303): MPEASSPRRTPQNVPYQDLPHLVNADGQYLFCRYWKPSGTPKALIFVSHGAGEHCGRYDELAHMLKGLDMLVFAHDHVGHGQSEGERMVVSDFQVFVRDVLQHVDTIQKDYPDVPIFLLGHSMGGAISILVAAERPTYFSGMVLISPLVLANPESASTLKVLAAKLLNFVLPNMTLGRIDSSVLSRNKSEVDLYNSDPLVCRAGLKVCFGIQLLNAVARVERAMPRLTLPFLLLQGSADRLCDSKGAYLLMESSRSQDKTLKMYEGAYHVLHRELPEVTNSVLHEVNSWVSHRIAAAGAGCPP
The series is described as follows: mMGL off-target inhibition. In kind it is biochemical. The note with it: read-out: mMGL off-target inhibition [% inhibition at 100 μM]. How it is done:
Lysates from E. coli expressing mMGL were treated with 100 μM Inhibitors and incubated with 1 mM rac-OG substrate for 10 min. Enzyme activity was measured using the Free Glycerol Reagent. Samples measured in triplicates.

For another series, the system named is rhesus monkey ATGL. The series is described as follows: Rhesus monkey ATGL inhibition, Expi lysates + CGI-58. Format: biochemical. On the procedure: Lysates from Expi cells overexpressing ATGL from rhesus monkeys (Macaca mulatta) were incubated with recombinant purified ATGL co-activator CGI-58 and ATGL inhibitors at 50 μM. Subsequently, substrate containing radiolabeled triolein was added and liberated FA were extracted and quantified by liquid scintillation. Inhibitors were dissolved in DMSO which was used as control. Samples were measured in triplicates.

The next series deals with AML-12 cells. Description: Toxicity screening (LDH) in AML-12 cells. In kind it is cell-based, mouse. The conditions noted are these: 24 h treatment, LDH release. On the procedure: AML-12 cells were seeded in 96 well plates and at 80% confluency treated with DMSO (0.5% final conc.) or ATGL Inhibitors for 24 h in DMEM+P/S+3% heat inactivated FCS (3 h at 62° C.). Subsequently, medium was centrifuged at 300 g for 3 min, and LDH activity of 50 μl supernatant was determined via the Roche LDH Kit. Samples measured in triplicates.
(Release of lactate dehydrogenase indicates damage to the cell membrane.)

The mark [1] stands for this setting: Example 237, read-out: Inhibition of human ATGL − IC50.
Setting [2] is: 50 μM compound, Example 237, read-out: Inhibition of murine ATGL at 50 μM − mean [%].
Where [3] appears, read: Example 238, read-out: Inhibition of human ATGL IC50.
Where [4] appears, read: 50 μM, Example 238, read-out: % Inhibition of murine ATGL at 50 μM.
Setting [5] is: 50 μM, overview table, read-out: mouse ATGL inhibition [% inhibition at 50 μM].

Read-outs that look alike come from different tables or passages of the source.

Take `CCOc1ccc(-c2cc(OC)cc(C(=O)OC(C)C)n2)cc1` [Example 35]: on human ATGL (setting [1]), the IC50 was found to be 1 µM. Moreover, the inhibition at 50 µM on murine ATGL (setting [2]) is 0%. In addition, on mMGL, the inhibition at 100 µM is 0%.
As for `CCOc1ccc(-c2nc(C(=O)OCc3cccs3)cs2)cc1` [Example 152, Thiophen-2-ylmethyl 2-(4-ethoxyphenyl)thiazole-4-carboxylate], at human ATGL (setting [1]), the IC50 came out at 10 µM. Moreover, on murine ATGL (setting [2]), the inhibition at 50 µM stood at 74%. In the series with rhesus monkey ATGL, the “rhesus monkey ATGL inhibition [% inhibition at 50 μM]” value amounted to 10%.
`CCOc1ccc(-c2cccc(C(=O)OCc3cccs3)n2)cc1` [Example 189, Thiophen-2-ylmethyl 6-(4-ethoxyphenyl)picolinate]: the IC50 at human ATGL (setting [3]) was 25 µM. Further, the inhibition at 50 µM on murine ATGL (setting [4]) is 87%. In the series on rhesus monkey ATGL, the “rhesus monkey ATGL inhibition [% inhibition at 50 μM]” value is listed as 70%. Besides, on mMGL, the inhibition at 100 µM came to 0%. Besides, the “Tox AML-12 (LDH) seen from” value in the series with AML-12 cells came to 200 µM.
On to `CCOc1ccc(-c2cccc(C(=O)OCc3ccco3)n2)cc1` [Example 190, Furan-2-ylmethyl 6-(4-ethoxyphenyl)picolinate], for which, on human ATGL (setting [3]), the IC50 stood at 15 µM. Besides, the inhibition at 50 µM on murine ATGL (setting [4]) came out at 80%. Also, the “rhesus monkey ATGL inhibition [% inhibition at 50 μM]” value in the series on rhesus monkey ATGL turned out to be 70%. Moreover, the inhibition at 100 µM at mMGL was 0%. Also, the “Tox AML-12 (LDH) seen from” value in the series on AML-12 cells was found to be 200 µM.
For the compound `COc1cc(C(=O)OC(C)C)nc(-c2ccc(OC(C)C)cc2)c1` [Example 201, Isopropyl 6-(4-isopropoxyphenyl)-4-methoxypicolinate], the IC50 on human ATGL (setting [3]) was under 3 µM. In addition, the figures for the inhibition at 50 µM at murine ATGL (setting [4]) and on murine ATGL (setting [5]) were 45% and 0%, respectively. Moreover, the “rhesus monkey ATGL inhibition [% inhibition at 50 μM]” value in the series with rhesus monkey ATGL is given as 95%. Also, at mMGL, the inhibition at 100 µM worked out at 0%. In addition, the “Tox AML-12 (LDH) seen from” value in the series on AML-12 cells is 200 µM.
Turning to `CC#CCOC(=O)c1csc(-c2ccc(OCC)cc2)n1` [Example 209, But-2-yn-1-yl 2-(4-ethoxyphenyl)thiazole-4-carboxylate], the IC50 at human ATGL (setting [3]) worked out at 10 µM. Also, at murine ATGL (setting [4]), the inhibition at 50 µM amounted to 76%. The “rhesus monkey ATGL inhibition [% inhibition at 50 μM]” value in the series with rhesus monkey ATGL was 70%. Besides, the inhibition at 100 µM on mMGL amounted to 0%. Also, the “Tox AML-12 (LDH) seen from” value in the series on AML-12 cells was 100 µM.
With `C#C[C@H](C)OC(=O)c1csc(-c2ccc(OCC)cc2)n1` [Example 210, (S)-But-3-yn-2-yl 2-(4-ethoxyphenyl)thiazole-4-carboxylate], the IC50 at human ATGL (setting [3]) was under 3 µM. The inhibition at 25 µM on murine ATGL (Example 238) stood at 47%. Further, the inhibition at 50 µM at murine ATGL (setting [4]) came out at 60%. Also, the “rhesus monkey ATGL inhibition [% inhibition at 50 μM]” value with rhesus monkey ATGL worked out at 90%. For the same compound, at mMGL, the inhibition at 100 µM came out at 0%. In the series with AML-12 cells, the “Tox AML-12 (LDH) seen from” value is 200 µM.
Turning to `C#C[C@@H](C)OC(=O)c1csc(-c2ccc(OCC)cc2)n1` [Example 211, (R)-But-3-yn-2-yl 2-(4-ethoxyphenyl)thiazole-4-carboxylate], the half-inhibitory concentration (IC50) on human ATGL (setting [3]) is under 3 µM. For the same compound, the inhibition at 25 µM at murine ATGL (Example 238) is 73%. The inhibition at 50 µM at murine ATGL (setting [4]) was 82%; on murine ATGL (setting [5]) it was 60%. In addition, the “rhesus monkey ATGL inhibition [% inhibition at 50 μM]” value with rhesus monkey ATGL came to 100%. In addition, the inhibition at 100 µM on mMGL was found to be 0%. In the series with AML-12 cells, the “Tox AML-12 (LDH) seen from” value is 100 µM.
Regarding `CCCCOC(=O)c1csc(-c2ccc(OCC)cc2)n1` [Example 212, Butyl 2-(4-ethoxyphenyl)thiazole-4-carboxylate], the IC50 at human ATGL (setting [3]) was 7 µM. Besides, the inhibition at 25 µM on murine ATGL (Example 238) is 47%. Further, on murine ATGL (setting [4]), the inhibition at 50 µM is 56%. Moreover, the “rhesus monkey ATGL inhibition [% inhibition at 50 μM]” value in the series on rhesus monkey ATGL is given as 70%. Also, the inhibition at 100 µM on mMGL turned out to be 0%. Also, in the series with AML-12 cells, the “Tox AML-12 (LDH) seen from” value amounted to 200 µM.
As for `CCOc1ccc(-c2nc(C(=O)OCc3ccsc3)cs2)cc1` [Example 215, Thiophen-3-ylmethyl 2-(4-ethoxyphenyl)thiazole-4-carboxylate], the IC50 on human ATGL (setting [3]) was under 3 µM. Moreover, the inhibition at 25 µM on murine ATGL (Example 238) amounted to 71%. Further, the inhibition at 50 µM was determined as 81% on murine ATGL (setting [4]) and 60% at murine ATGL (setting [5]). Moreover, the “rhesus monkey ATGL inhibition [% inhibition at 50 μM]” value with rhesus monkey ATGL was 70%. The inhibition at 100 µM on mMGL stood at 0%.
For `CCOc1ccc(-c2nc(C(=O)OCc3ccoc3)cs2)cc1` [Example 216, Furan-3-ylmethyl 2-(4-ethoxyphenyl)thiazole-4-carboxylate], the IC50 on human ATGL (setting [3]) was under 3 µM. Further, at murine ATGL (Example 238), the inhibition at 25 µM came out at 70%. Besides, the inhibition at 50 µM at murine ATGL (setting [4]) was determined as 81%. Moreover, in the series with rhesus monkey ATGL, the “rhesus monkey ATGL inhibition [% inhibition at 50 μM]” value is 70%. Besides, the inhibition at 100 µM on mMGL came to 0%. For the same compound, the “Tox AML-12 (LDH) seen from” value in the series on AML-12 cells is 50 µM.
In the case of `CCOc1ccc(-c2nc(C(=O)OCc3ccc(Cl)s3)cs2)cc1` [Example 223, (5-Chlorothiophen-2-yl)methyl 2-(4-ethoxyphenyl)thiazole-4-carboxylate], the IC50 on human ATGL (setting [3]) amounted to 12 µM. At murine ATGL (setting [4]), the inhibition at 50 µM was 71%. Further, the “rhesus monkey ATGL inhibition [% inhibition at 50 μM]” value in the series with rhesus monkey ATGL is listed as 65%. For the same compound, at mMGL, the inhibition at 100 µM amounted to 0%.
The matching figures for `CCOc1ccc(-c2nc(C(=O)OCc3ccc(Br)s3)cs2)cc1` [Example 224, (5-Bromothiophen-2-yl)methyl 2-(4-ethoxyphenyl)thiazole-4-carboxylate]: 12 µM, 68%, 70% and 70%.
